Reference: patent US9073919B2, “Pyrazolo pyridine derivatives as NADPH oxidase inhibitors” (GENKYOTEX SA, priority 2007, dated 2015)

Key:
Type in all cases: cell-based, human
NOX [1] = test: H2DCF-DA fluorescence in TGF-β stimulated HUVEC; conditions: % of the activity in control cells, 'usually'
Experimental: HUVEC are cultured in endothelial basal medium supplemented with hydrocortisone (1 μg/mL, CalbioChem), bovine brain extract (12 μg/mL), gentamicin (50 μg/mL, CalbioChem), amphotericin B (50 ng/mL, CalBioChem EGF (10 ng/mL, and 10% FCS until the fourth passage. When the fifth passage was started, cells were cultured with a lower concentration of FCS (2%) in the absence of EGF, if not indicated otherwise. All experiments were done with cells of the fifth passage. The cells were incubated with OxLDL (oxidized low-density lipoprotein) or its buffer as control for 24 h, before detection of O2^− formation.
HUVEC were plated on coverslips and made quiescent overnight in 0.5% BSA before stimulation with TGF-β. Cells were loaded for 10 minutes with 5 μM CM-H2DCFDA in phenol-red-free medium in the dark and then treated with TGF-β (R&D Systems) in the presence or absence of compounds according to the invention. Cells were then visualized by immunofluorescence microscopy after fixation and staining of the nuclei with DAPI or examined live using confocal microscopy. DCF fluorescence was visualized at an excitation wavelength of 488 nm and emission at 515 to 540 nm. […] For calculation, the absorbance at […] was normalized to absorbance at […] for each individual well. […] NOX activities were expressed as % of the activity in control cells. […]

NOX [2] = test: Chemiluminescence (luminol) ROS measurement in cells; conditions: % of the activity in control cells, 'usually'
Experimental: (§1) Extracellular hydrogen peroxide was measured using Amplex UltraRed (Molecular Probes). Cells were trypsinized (1× Trypsin-EDTA), collected by centrifugation, and resuspended in HBSS supplemented with 1% glucose. Cells were seeded into black 96-well plates at a density of 50,000 cells in 200 μl testing buffer (HBSS 1% glucose containing 0.005 U/mL horseradish peroxidase (Roche) and 50 μM Amplex Red in the presence or absence of compounds according to the invention. As a control, DPI was included at a final concentration of 10 μM The plates were placed in the fluorescent Optima Fluorescent plate reader and kept at 37° C. during 20 min. Fluorescence was measured for […] with excitation and emission wavelengths of 544 nm and 590 nm respectively. NOX activities were expressed as % of the activity in control cells. Residual activity of DPI-treated cells was usually <10%.
ROS was measured using the chemiluminescent probe luminol. Cells were cultured and plated as for Amplex Red except that the Amplex Red agent was replaced by 10 μg/mL luminol (Sigma 09235). Light emission was recorded continuously at 37° C. for 60 minutes using the luminescence function of the FluoStar Optima fluorescent plate reader. The mean of the four blank values was subtracted from each corrected value for each time point. NOX activities were expressed as % of the activity in control cells. […]

NOX [3] = test: Amplex Red, extracellular hydrogen peroxide, DMSO-differentiated HL60 cells; conditions: DPI 10 μM, % of the activity in control cells, 'usually'
Experimental: Human acute myeloid leukemia cell line HL-60 was cultured in RPMI 1640 (Invitrogen) supplemented with 10% heat-inactivated calf serum, 2 mM glutamine, 100 U/mL penicillin (Sigma), and 100 μg streptomycin (Sigma) at 37° C. under a humidified atmosphere of 5% CO2. HL60 differentiation to the neutrophil phenotype was triggered by adding Me2SO (final concentration 1.25% v/v for 6 days) to the culture medium.
as §1

NOX [4] = test: Nitroblue tetrazolium (NBT) superoxide test in cells; conditions: DPI 10 μM, % of the activity in control cells, 'usually'
Experimental: Human microglia cell line (HMC3, human microglia clone 3) (Janabi et al, 1995, Neurosci Lett 195:105) were cultured in MEM (Eagle's minimum essential medium) containing 10% FBS with 50 U/ml penicillin G sodium 50 μg/ml streptomycin sulfate, and incubated at 37° C. for 24 hours. IFN-γ (human IFN-γ, Roche. 11 040 596 001) was added to the culture medium for a final concentration of 10 ng/ml 24 h, before detection of O2^− formation. […]
Intracellular and extracellular superoxide was measured by a colorimetric technique using a quantitative nitroblue tetrazolium (NBT) test. SOD-inhibitable conversion of NBT to formazan, a fine blue precipitate, in the presence of superoxide anion was measured using Fluostar Optima spectrometer (BMG labtech). […] The absorption was measured at 630 nm. For calculation, the absorbance at 630 nm was normalized for each individual well. […] NOX activities were expressed as % of the activity in control cells. […]

Measured: Residual activity of DPI-treated cells

c1ccc([I+]c2ccccc2)cc1 [DPI, Diphenyl-iodonium]
< 10%: all assays above
